Assays:
[1] = test system: activated CD8+T-cells (ATC); test: Activated T-cell (ATC) migration induced by individual chemokines, inhibition by peptide; type: cell-based, human; settings: peptide 10 uM; chemokines at EC80; Dunnett's test
Procedure: Cell lines were confirmed mycoplasma free by monthly testing using a MycoAlert^TM kit (LT07-118, Lonza) following the manufacturer’s instructions. THP1 cells: THP1 cells (ECACC 88081201, a human monocyte leukemia cell line[51]) were obtained from ECACC and were cultured in T175 flasks at 0.3-1 × 10^6 cells/mL in Roswell Park Memorial Institute (RPMI) 1640 medium (R0883, Sigma) with 10% FBS (F9665, Sigma) and 5mM L-glutamine (G7513, Sigma), 37 °C, 5% CO2. J:CXCR1 cells: The J:CXCR1 cell line was cultured in the same manner as THP1 cells at 0.15-1 × 10^6 cells per mL[37]. Activated T-cells: T-cells were isolated, activated and expanded as follows. Briefly, density gradient centrifugation using Lymphoprep^TM density gradient medium (07801, […] Technologies) and a SepMate^TM isolation tube (85450, […] Technologies) was used to isolate peripheral blood mononuclear cells from human leukocyte cones. Two rounds of purification using a human CD8 + T-cell isolation kit (480011, BioLegend) were used to isolate CD8 + T-cells from peripheral blood mononuclear cells. Activation of CD8 + T-cells was performed in ImmunoCult^TM-XF T-cell expansion medium (10982, […] Technologies) with an anti-CD3/anti-CD28 T-cell activator at 25 μl/ml (10991, […] Technologies), supplemented with 10 ng/ml recombinant human IL-2 (200-02, PeproTech) with 1% penicillin/streptomycin. T-cells were passaged every 2–3 days in TexMACS medium (130-097-196, Miltenyi Biotec), supplemented with 10 ng/ml human IL-2 (200-05-250, Peprotech) and incubated at 37 °C in 5% CO2. CD8 + T-cells were frozen at day 10-13 after initial activation, at 20×10^6 cell/ml in TexMACS medium supplemented with 10% DMSO (D2650, Sigma) in liquid nitrogen. Activated CD8^+ T-cells were recovered in TexMACs medium at 0.3 × 10^6 cell/ml and incubated at 37 °C in 5% CO2, 24 h prior to use. For buffy coat experiments a mixture of primary human monocytes, granulocytes and lymphocytes was isolated from human buffy coat. Briefly, RBCs were sedimented in HetaSep (07806, […] Technologies) with 1 mL of HetaSep per 5 mL of blood for 15 min at 37 °C. The buffy coat layer was collected from the top and washed in 50 ml MACS buffer (PBS (P4417, Sigma), 0.5% BSA (A7030, Sigma), 0.075% EDTA (E5134, Sigma), pH 7.2), by centrifugation at 2000 g for 10 min at room temperature. The pellet was resuspended in 10 mL of 1x RBC lysis solution (130-094-183, Miltenyi Biotec) and lysed for 10 min at room temperature. The cells were then washed in MACS buffer twice as above. The final pellet was resuspended in 1 mL of MACS buffer per 5 mL of initial blood volume and counted using cell size FSC-H/SSC-H parameters with gate settings previously defined by immunostaining (see below). The leukocytes were then resuspended in assay buffer for cell migration and used within 30 min of isolation.
Cell counts were determined using an ATTUNE NxT Flow Cytometer with Cytkick autosampler (ThermoFisher), based on cell size parameters FSC-H/SSC-H, with previously defined gate settings. FSC-H/SSC-H gate settings for primary white blood cells from buffy coats were determined using flow cytometry to establish the granulocyte, monocyte and lymphocyte populations (Supplementary Fig. 13). Briefly, cells were labelled with anti-CD3 (Miltenyi Biotec, 130-113-135) to identify the T cell population, anti-CD14 (Miltenyi Biotec, 130-110-578) to identify the monocyte population, and with anti-CD16 (Miltenyi Biotec, 130-113-951) to identify the granulocyte population. Negative control cells were labelled with anti-human IgG1 (Miltenyi Biotec, 130-113-434). All antibodies were allophycocyanin (APC) conjugated. 100,000 white blood cells were added to Eppendorf tubes and centrifuged at 300 g for 3 min. The supernatant was discarded, and the cells resuspended in 98 µL of MACS buffer (1× PBS, 2 mM EDTA and 0.5% BSA, sterile filtered). 2 µl of antibody was added to the cells. […]

[2] = lyophilised peptide, data provided by the manufacturer, ref GenScript, cited from earlier work
[3] = test system: J:CXCR1 cells (Jurkat cells stably transfected with CXCR1); test: J:CXCR1 cell migration induced by CXCL6, inhibition by peptide; type: cell-based, human; settings: peptide 10 uM; CXCL6 at EC80; Dunnett's test
Procedure: Cell lines were confirmed mycoplasma free by monthly testing using a MycoAlert^TM kit (LT07-118, Lonza) following the manufacturer’s instructions. THP1 cells: THP1 cells (ECACC 88081201, a human monocyte leukemia cell line[51]) were obtained from ECACC and were cultured in T175 flasks at 0.3-1 × 10^6 cells/mL in Roswell Park Memorial Institute (RPMI) 1640 medium (R0883, Sigma) with 10% FBS (F9665, Sigma) and 5mM L-glutamine (G7513, Sigma), 37 °C, 5% CO2. J:CXCR1 cells: The J:CXCR1 cell line was cultured in the same manner as THP1 cells at 0.15-1 × 10^6 cells per mL[37]. Activated T-cells: T-cells were isolated, activated and expanded as follows. Briefly, density gradient centrifugation using Lymphoprep^TM density gradient medium (07801, […] Technologies) and a SepMate^TM isolation tube (85450, […] Technologies) was used to isolate peripheral blood mononuclear cells from human leukocyte cones. Two rounds of purification using a human CD8 + T-cell isolation kit (480011, BioLegend) were used to isolate CD8 + T-cells from peripheral blood mononuclear cells. Activation of CD8 + T-cells was performed in ImmunoCult^TM-XF T-cell expansion medium (10982, […] Technologies) with an anti-CD3/anti-CD28 T-cell activator at 25 μl/ml (10991, […] Technologies), supplemented with 10 ng/ml recombinant human IL-2 (200-02, PeproTech) with 1% penicillin/streptomycin. […] The final pellet was resuspended in 1 mL of MACS buffer per 5 mL of initial blood volume and counted using cell size FSC-H/SSC-H parameters with gate settings previously defined by immunostaining (see below). […]
(§1) Cell counts were determined using an ATTUNE NxT Flow Cytometer with Cytkick autosampler (ThermoFisher), based on cell size parameters FSC-H/SSC-H, with previously defined gate settings. FSC-H/SSC-H gate settings for primary white blood cells from buffy coats were determined using flow cytometry to establish the granulocyte, monocyte and lymphocyte populations (Supplementary Fig. 13). […]

[4] = test system: THP1 cells, activated T-cells (ATC), J:CXCR1 cells; test: Meta-analysis of individual chemokine-induced cell migration experiments; type: cell-based, human; settings: seven CC and three CXC chemokines, Dunnett's test
Procedure: Cell migration assays were performed as follows. THP1 cell migration. Briefly, 300000 cells/well were added to the top chamber of a 5-µm 96-well Transwell insert (3387, Corning) in 50 µL of cell migration media (RPMI-1640 (R0883, Sigma), 0.5% FBS (F9665, Sigma), 4mM L-Glutamine (G7513, Sigma), 0.05% DMSO (D4540, Sigma)). The bottom chamber contained 150 µL of migration media with chemokine and peptide. Cells were migrated at 37 °C in 5% CO2 for 4 h. J:CXCR1 cell migration was performed exactly as above using a 3-µm Transwell insert (3385, Corning). Activated T-cell migration. Briefly, 100000 cells/well were added to the top chamber of a 3-µm Transwell insert (3385, Corning) in 50 µL of migration media (HBSS (14025-092, Life Technologies), 0.1% protease free bovine serum albumin (A7030, Sigma), 0.05% DMSO (D4540, Sigma)). The bottom chamber contained 150 µL of migration media with chemokine and peptide. Cells were migrated at 37 °C in 5% CO2 for 2 h. Buffy coat migration. Briefly, a mixture of all cell types at 100000 cells/well were added to the top chamber of a 3-µm Transwell insert (3385, Corning) in 50 µL of migration media (HBSS (14025-092, Life Technologies), 0.1% protease free bovine serum albumin (A7030, Sigma), 0.05% DMSO (D4540, Sigma). The bottom chamber contained 150 µL of migration media with chemokine and peptide. Cells were migrated at 37 °C in 5% CO2 for 2 h. Analysis of cell migration. The migration plate was shaken at 850 RPM for 10 min, and media from bottom plate transferred to a round-bottomed 96 well plate (353910, Falcon). Cells were counted by flow cytometry as described above. Experiments were performed at chemokine EC80 for individual chemotaxis experiments and at EC50 for the pooled chemokine experiments, with three technical replicates, and at least three biological replicates. Statistical significance of differences between control and test groups was evaluated using a two-sided Dunnett’s test with multiple testing correction. Chemokine EC80 or chemokine pool EC50 values were as determined by performing a chemokine dose-response against the cell type and fitting the dose-response curve with a 3-parameter log-logistic model, where the maximal response is fixed at 100% response. […] IC50 was determined by performing inhibitor dose-response experiments and fitting the dose-response curve with a 3-parameter log-logistic model, fixing the bottom of the curve to zero. […] For summary statistics and comparisons, pEC50, pEC80 and pIC50 were calculated as the negative log10 of EC50, EC80 or IC50 expressed in moles/litre.
Sample size and estimated effect sizes were not formally calculated for cell-based or phage-display experiments and no randomization was performed. […]

[5] = test system: Lymphocytes; test: Buffy coat lymphocyte migration induced by disease chemokine pools, inhibition by peptide; type: cell-based, human; settings: peptide 10 uM; pool at EC50; compared to HD2SCR
Description: (§2) To assess the potential of combinatorially mutated peptides as therapeutic agents in inflammatory disease, we explored their efficacy against pools of chemokines known to be produced in diseased tissues. We developed the chemokine pool approach to represent the naturally occurring mix of chemokines present in diseased tissues as chemokines have well-known synergistic interactions that cannot be recapitulated when studied individually[8],[11],[55]–[60]. We chose three diseases, atherosclerotic plaque, rheumatoid arthritis, and type 1 diabetes as exemplars, as there is considerable evidence supporting the role of chemokines in their pathology[2]–[4]. To develop disease-relevant chemokine pools, we identified well-characterised bulk RNA-sequencing datasets from atherosclerotic plaque (GSE198600) and rheumatoid arthritis synovium (GSE198520)[61],[62]. […] We analysed chemokine expression levels (in transcripts per million) from these datasets (Supplementary Fig. 6). For each disease we designed a synthetic chemokine pool such that individual chemokine molar concentrations were at ratios determined by the mean relative expression of chemokines in the RNA-sequencing dataset. […] In these experiments we also assessed the effect of EVA4, the parental CC-chemokine binding evasin from which the HD2 series was derived.

[6] = test system: J:CXCR1 cells; test: Chemokine dose-response, J:CXCR1 cell migration; type: cell-based, human; settings: mean of 7 replicates
Procedure: (§3) Cell lines were confirmed mycoplasma free by monthly testing using a MycoAlert^TM kit (LT07-118, Lonza) following the manufacturer’s instructions. THP1 cells: THP1 cells (ECACC 88081201, a human monocyte leukemia cell line[51]) were obtained from ECACC and were cultured in T175 flasks at 0.3-1 × 10^6 cells/mL in Roswell Park Memorial Institute (RPMI) 1640 medium (R0883, Sigma) with 10% FBS (F9665, Sigma) and 5mM L-glutamine (G7513, Sigma), 37 °C, 5% CO2. J:CXCR1 cells: The J:CXCR1 cell line was cultured in the same manner as THP1 cells at 0.15-1 × 10^6 cells per mL[37]. Activated T-cells: T-cells were isolated, activated and expanded as follows. […] The final pellet was resuspended in 1 mL of MACS buffer per 5 mL of initial blood volume and counted using cell size FSC-H/SSC-H parameters with gate settings previously defined by immunostaining (see below). […]
as §1

[7] = test system: Monocytes; test: Buffy coat monocyte migration induced by disease chemokine pools, inhibition by peptide; type: cell-based, human; settings: peptide 10 uM; pool at EC50; compared to HD2SCR
Description: as §2

[8] = test system: THP1 cells; test: THP1 cell migration (Transwell) induced by individual chemokines, inhibition by peptide; type: cell-based, human
Procedure: as §3, §1

EEDDYTAYWPLTCYFT [HD2A9W, HD2 point mutant]
inhibition of CCL19, CCL21, CXCL9, and CXCL11-induced migration of ATCs compared to parental HD2 [1]: significant improvement in inhibition | Solubility, Water ([2]; C-terminal amide): Insoluble | Solubility, DMSO [2]: Insoluble | Solubility, HCOOH [2]: Soluble | Solubility, PBS [2]: Insoluble | inhibition of CXCL6-induced migration of J:CXCR1 cells compared to parental HD2 [3]: significant improvement in inhibition | migrated cell count over all chemokines studied, compared to HD2 (meta-analysis) [4]: significant improvement over HD2

DDDDWDAYAPIWCYFT [HD2CM452, combinatorially mutated HD2 peptide, CM-maxCC group]
inhibition of lymphocyte migration, atherosclerosis pool [5]: significant inhibition | inhibition of lymphocyte migration, rheumatoid arthritis pool [5]: significant inhibition

EEDDYTAYAPLTCYFC [HD2T16C, HD2 point mutant]
inhibition of CCL19, CCL21, CXCL9, and CXCL11-induced migration of ATCs compared to parental HD2 [1]: significant improvement in inhibition | inhibition of CXCL6-induced migration of J:CXCR1 cells compared to parental HD2 [3]: significant improvement in inhibition | migrated cell count over all chemokines studied, compared to HD2 (meta-analysis) [4]: significant improvement over HD2

CXCL6: human chemokine, Peprotech 300-41
Mean pEC50 [6]: 7.71 [M] | Mean pEC80 [6]: 7.45 [M]

DDDDWDDYAPITCYFD [HD2CM539, combinatorially mutated HD2 peptide, CM-max group]
inhibition of monocyte migration, insulitis pool [7]: significant inhibition

DWDDWTAYWDLVCYFD [HD2CM3085, combinatorially mutated HD2 peptide, CM-min group]
inhibition of CCL8 migration compared to the parental peptide ([8]; peptide 0.1 uM, CCL8 at EC80): significantly worse | inhibition of CCL7 migration compared to the parental peptide ([8]; peptide 5 uM, CCL7 at EC80): no differently
